These results are taken from patent US7846944B2, “Pyrazolo-pyridinone compounds and methods of use thereof” (Amgen Inc., priority 2007, dated 2010).

SMILES strings stand for the structures.

Assay [1] has as its target recombinant human p38α (Homo sapiens, UniProt Q16539). Put plainly: Purified and activated recombinant human p38α HTRF kinase assay. The class given is biochemical. Conditions: 1 nM p38α, 50 μM ATP, GST-ATF2 substrate, read-out: p38a IC50. How it is done: Purified and Activated Recombinant Human p38α Assay
• Kinase Reaction Buffer: Kinase reaction buffer for p38α HTRF assays consists of 50 mM Tris-pH 7.5, 5 mM MgCl2, 0.1 mg/mL BSA, 100 μM Na3VO4 and 0.5 mM DTT. • HTRF Detection Buffer: HTRF detection buffer contains 100 mM HEPES-pH 7.5, 100 mM NaCl, 0.1% BSA, 0.05% Tween-20, and 10 mM EDTA. • Serial Dilution of Compounds: Compounds were dissolved in 100% DMSO and serially diluted (3 fold, 10 point) in a polypropylene 96-well microtiter plate (drug plate). The final starting concentration of compounds in the p38α enzymatic assays was 1 μM. Columns 6 and 12 (HI controls and LO controls respectively) in the drug plate were reserved as controls and contained only DMSO. • Kinase Reaction The p38α kinase reactions were carried out in a polypropylene 96-well black round bottom assay plate in total volume of 30 μL kinase reaction buffer. Appropriate concentration of purified and activated enzyme (recombinant human) was mixed with indicated concentration of ATP and 100 nM GST-ATF2-Avitag, in the presence or absence (HI control) of Compound. See table below for actual concentrations. In the absence of substrate, the background was measured as LO control. The reaction was allowed to incubate for 1 hour at RT. • Assay Reagent Concentrations: The final reagent concentrations were 1 nM p38α and 50 μM ATP. […] After 60 minutes incubation at room temperature, the assay plate was read in a Discovery Plate Reader. The wells were excited with coherent 320 nm light and the ratio of delayed ([…] post excitation) emissions at […] (native europium fluorescence) and 665 nm (europium fluorescence transferred to allophycocyanin—an index of substrate phosphorylation) was determined (Park et al, 1999). • Data Analysis: The proportion of substrate phosphorylated in the kinase reaction in the presence of compound compared with that phosphorylated in the presence of DMSO vehicle alone (HI control) was calculated using the formula: % control (POC)=(compound−average LO)/(average HI−average LO)*100. Data (consisting of POC and inhibitor concentration in μM) was fitted to a 4-parameter equation (y=A+((B−A)/(1+((x/C)^D))), where A is the minimum y (POC) value, B is the maximum y (POC), C is the x (compound concentration) at the point of inflection and D is the slope factor, using a Levenburg-Marquardt non-linear regression algorithm.
The inhibition constant (Ki) of the inhibitor was estimated from the IC50 (compound concentration at the point of inflection C) using the Cheng-Prussof equation: Ki=IC50/(1+S/Km), where S is the ATP substrate concentration, and Km is the Michaelis constant for ATP as determined experimentally. All results were expressed as the mean±the standard error of the mean. Data acquisition and non-linear regression algorithms were performed using Activity Base v5.2 and XL-fit software v4.1 respectively. All data was archived using Activity Base v5.2 software.

Assay [2] concerns TNF-α secretion by LPS-treated THP1 cells. Put plainly: Lipopolysaccharide-activated THP1 cell TNF production assay. As to conditions: Homo sapiens, THP-1; LPS, 3 hours, THP1 cells; read-out: IC50 in the THP-1 cellular TNF production assay. The class given is cell-based. On the procedure: Lipopolysaccharide-Activated THP1 Cell TNF Production Assay
THP1 cells were resuspended in fresh THP1 media (RPMI 1640, 10% heat-inactivated FBS, 1×PGS, 1×NEAA, plus 30 μM βME) at a concentration of 1.5×10^6 cells per mL. One hundred microliters of cells per well were plated in a polystyrene 96-well tissue culture plate. 1.5 micrograms per mL of bacterial LPS was prepared in THP1 media and transferred to the first 11 columns of a 96-well polypropylene plate. Column 12 contained only THP1 media for the LO control. Compounds were dissolved in 100% DMSO and serially diluted 3 fold in a polypropylene 96-well microtiter plate (drug plate). Columns 6 and 12 were reserved as controls (HI controls and LO controls respectively) and contained only DMSO. 10 μL of LPS followed by one microliter of inhibitor compound from the drug plate was transferred to the cell plate. The treated cells were induced to synthesize and secrete TNF-α in a 37° C. humidified incubator with 5% CO2 for 3 hours. Fifty microliters of conditioned media was transferred to a 96-well MULTI-ARRAY™ 96-well small spot plate—custom coated with MAB610 containing 100 μL of 2× Read Buffer P supplemented with 0.34 nM AF210NA polyclonal Ab labeled with ruthenium (MSD-Sulfo-TAG™-NHS ester). After an overnight incubation at room temperature with shaking, the reaction was read on the Sector Imager™ 6000. […] The amount of secreted TNF-α in the presence of AMG compounds compared with that in the presence of DMSO vehicle alone (HI control) was calculated using the formula: % control (POC)=(cpd−average LO)/(average HI−averageLO)*100. Data (consisting of POC and inhibitor concentration in μM) was fitted to a 4-parameter equation (y=A+((B−A)/(1+((x/C)^D))), where A is the minimum y (POC) value, B is the maximum y (POC), C is the x (cpd concentration) at the point of inflection and D is the slope factor) using a Levenburg-Marquardt non-linear regression algorithm.

recombinant human p38α, sequence (Q16539 whole entry): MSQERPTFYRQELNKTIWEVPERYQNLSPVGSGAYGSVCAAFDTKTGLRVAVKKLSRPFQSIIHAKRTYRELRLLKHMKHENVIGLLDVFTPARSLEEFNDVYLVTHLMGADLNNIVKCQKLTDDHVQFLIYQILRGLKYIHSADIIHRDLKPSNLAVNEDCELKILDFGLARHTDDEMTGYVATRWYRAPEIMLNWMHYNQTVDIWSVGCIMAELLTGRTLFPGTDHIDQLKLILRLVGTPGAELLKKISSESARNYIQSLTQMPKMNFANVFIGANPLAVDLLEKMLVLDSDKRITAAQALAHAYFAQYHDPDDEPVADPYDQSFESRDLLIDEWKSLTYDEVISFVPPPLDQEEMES

A word on the IC50: it is the midpoint of a concentration-inhibition curve. Take `Cc1c(F)cc(C(=O)NC(C)C)cc1-c1cc2cnn(-c3c(F)cccc3F)c2n(C)c1=O` [Example 21, 3-(1-(2,6-difluorophenyl)-7-methyl-6-oxo-6,7-dihydro-1H-pyrazolo[3,4-b]pyridin-5-yl)-5-fluoro-4-methyl-N-(1-methylethyl)benzamide]: the IC50 in assay [1] was 7 nM; in assay [2], not above 175 nM.
The matching figures for `Cc1ccc(C(=O)Nc2ccnn2C)cc1-c1cc2cnn(-c3c(F)cccc3F)c2n(C)c1=O` [Example 10, 3-(1-(2,6-difluorophenyl)-7-methyl-6-oxo-6,7-dihydro-1H-pyrazolo[3,4-b]pyridin-5-yl)-4-methyl-N-(1-methyl-1H-pyrazol-5-yl)benzamide]: 2.9 nM and not above 175 nM.
The matching figures for `Cn1c(=O)c(-c2cc(C(=O)NC3CC3)ccc2CO)cc2cnn(-c3c(F)cccc3F)c21` [Example 32, N-cyclopropyl-3-(1-(2,6-difluorophenyl)-7-methyl-6-oxo-6,7-dihydro-1H-pyrazolo[3,4-b]pyridin-5-yl)-4-(hydroxymethyl)benzamide]: 21 nM and not above 175 nM.
Turning to `Cc1ccc(C(=O)Nc2ccon2)cc1-c1cc2cnn(-c3cc(F)ccc3F)c2n(C)c1=O` [Example 26, 3-(1-(2,5-difluorophenyl)-7-methyl-6-oxo-6,7-dihydro-1H-pyrazolo[3,4-b]pyridin-5-yl)-N-3-isoxazolyl-4-methylbenzamide], the IC50 in assay [1] was 2.3 nM; in assay [2], not above 175 nM.
The matching figures for `CNC(=O)c1cc(F)c(C)c(-c2cc3cnn(-c4c(F)cccc4F)c3n(C)c2=O)c1` [Example 22, 3-(1-(2,6-difluorophenyl)-7-methyl-6-oxo-6,7-dihydro-1H-pyrazolo[3,4-b]pyridin-5-yl)-5-fluoro-N,4-dimethylbenzamide]: 6.2 nM and not above 175 nM.
On to `Cc1ccc(C(=O)NC2(C)CC2)cc1-c1cc2cnn(-c3cc(F)ccc3F)c2n(C)c1=O` [Example 25, 3-(1-(2,5-difluorophenyl)-7-methyl-6-oxo-6,7-dihydro-1H-pyrazolo[3,4-b]pyridin-5-yl)-4-methyl-N-(1-methylcyclopropyl)benzamide], for which the results for the IC50 in assay [1] and in assay [2] were 1.1 nM and not above 175 nM, respectively.
Taken in the same sequence, the figures for `Cc1c(F)cc(C(N)=O)cc1-c1cc2cnn(-c3ccccc3Cl)c2n(C)c1=O` [Example 1, 3-(1-(2-chlorophenyl)-7-methyl-6-oxo-6,7-dihydro-1H-pyrazolo[3,4-b]pyridin-5-yl)-5-fluoro-4-methylbenzamide] were 2.3 nM and not above 175 nM.
Taken in the same sequence, the figures for `CCn1c(=O)c(-c2cc(C(=O)NC3CC3)cc(F)c2C)cc2cnn(-c3ccccc3F)c21` [Example 6, N-cyclopropyl-3-(7-ethyl-1-(2-fluorophenyl)-6-oxo-6,7-dihydro-1H-pyrazolo[3,4-b]pyridin-5-yl)-5-fluoro-4-methylbenzamide] were 2.5 nM and not above 175 nM.
Taken in the same sequence, the figures for `Cc1ccc(C(=O)NC2CC2)cc1-c1cc2cnn(-c3ccc(F)cc3F)c2n(CC(O)CO)c1=O` (stereo not drawn) [Example 35, N-cyclopropyl-3-(1-(2,4-difluorophenyl)-7-(2,3-dihydroxypropyl)-6-oxo-6,7-dihydro-1H-pyrazolo[3,4-b]pyridin-5-yl)-4-methylbenzamide] were 34 nM and not above 175 nM.
Take `Cc1ccc(C(=O)Nc2ccon2)cc1-c1cc2cnn(-c3c(F)cccc3F)c2n(C)c1=O` [Example 18, 3-(1-(2,6-difluorophenyl)-7-methyl-6-oxo-6,7-dihydro-1H-pyrazolo[3,4-b]pyridin-5-yl)-N-3-isoxazolyl-4-methylbenzamide]: the concentration for half-maximal inhibition (IC50) in assay [1] was 3 nM; in assay [2], not above 175 nM.
The matching figures for `Cn1c(=O)c(-c2cc(C(=O)NC3CC3)ccc2Cl)cc2cnn(-c3ccc(F)cc3)c21` [Example 53, 4-chloro-N-cyclopropyl-3-(1-(4-fluorophenyl)-7-methyl-6-oxo-6,7-dihydro-1H-pyrazolo[3,4-b]pyridin-5-yl)benzamide]: 6 nM and not above 175 nM.
Consider `Cc1ccc(C(=O)NC2(C)CC2)cc1-c1cc2cnn(-c3c(F)cccc3F)c2n(C)c1=O` [Example 30, 3-(1-(2,6-difluorophenyl)-7-methyl-6-oxo-6,7-dihydro-1H-pyrazolo[3,4-b]pyridin-5-yl)-4-methyl-N-(1-methylcyclopropyl)benzamide], for which the IC50 in assay [2] is not above 175 nM.
As to `Cc1ccccc1-n1ncc2cc(-c3cc(C(=O)NC4CC4)cc(F)c3C)c(=O)n(C)c21` [Example 15, N-cyclopropyl-3-fluoro-4-methyl-5-(7-methyl-1-(2-methylphenyl)-6-oxo-6,7-dihydro-1H-pyrazolo[3,4-b]pyridin-5-yl)benzamide], the figures for the IC50 in assay [1] and in assay [2] were 5.2 nM and not above 175 nM, respectively.
Taken in the same sequence, the figures for `Cc1ccc(C(=O)NC2CC2)cc1-c1cc2cnn(-c3c(F)cccc3F)c2n(C)c1=S` [Example 34, N-cyclopropyl-3-(1-(2,6-difluorophenyl)-7-methyl-6-thioxo-6,7-dihydro-1H-pyrazolo[3,4-b]pyridin-5-yl)-4-methylbenzamide] were 2.6 nM and not above 175 nM.
Taken in the same sequence, the figures for `CCn1c(=O)c(-c2cc(C(=O)NC3CC3)ccc2C)cc2cnn(-c3ccc(F)cc3F)c21` [Example 46, N-cyclopropyl-3-(1-(2,4-difluorophenyl)-7-ethyl-6-oxo-6,7-dihydro-1H-pyrazolo[3,4-b]pyridin-5-yl)-4-methylbenzamide] were 4.9 nM and not above 175 nM.
The matching figures for `Cc1ccc(C(=O)Nc2nccs2)cc1-c1cc2cnn(-c3c(F)cccc3F)c2n(C)c1=O` [Example 28, 3-(1-(2,6-difluorophenyl)-7-methyl-6-oxo-6,7-dihydro-1H-pyrazolo[3,4-b]pyridin-5-yl)-4-methyl-N-1,3-thiazol-2-ylbenzamide]: 1.1 nM and not above 175 nM.
In the case of `Cn1c(=O)c(-c2cc(C(=O)NC3CC3)ccc2Cl)cc2cnn(-c3cc(F)ccc3F)c21` [Example 29, 4-chloro-N-cyclopropyl-3-(1-(2,5-difluorophenyl)-7-methyl-6-oxo-6,7-dihydro-1H-pyrazolo[3,4-b]pyridin-5-yl)benzamide], the IC50 in assay [2] was not above 175 nM.
Same read-out and setting: as for `Cc1c(F)cc(C(=O)NC2CC2)cc1-c1cc2cnn(C(C)C)c2n(C)c1=O` [Example 17, N-cyclopropyl-3-fluoro-4-methyl-5-(7-methyl-1-(1-methylethyl)-6-oxo-6,7-dihydro-1H-pyrazolo[3,4-b]pyridin-5-yl)benzamide], the figure is not above 175 nM.
